Patent US20200247859A1, “CONSTRUCT FOR EXPRESSING G PROTEIN-COUPLED RECEPTOR OR SUBUNIT THEREOF, AND USE OF SAID CONSTRUCT” (JAPAN TOBACCO INC., priority 2017, published 2020)
Like-named read-outs stand apart in the source and are kept apart here.

How the values were obtained:
T2R40 = target: T1, T2R40 (Homo sapiens, UniProt P59535); assay: Response of Gα-T2R40 stable expression cell line to agonist (Fluo-8 calcium fluorescence); format: cell-based; conditions: Gα-T2R40 compared with T2R40-Gα; agonist 100 μM or 300 μM; FIG. 3
T1 construct: expressed in transfected cells
Procedure: (§1) Specifically, by the same method as in Example 1 and Example 2, a Gα-T2R40 stable expression cell line (containing Gα16/Gαgust43-IRES-ssr/T2R40N5) and a Gα-T2R43 stable expression cell line (containing Gα16/Gαgust43-IRES-ssr/T2R43/V5) were prepared.
(§2) The Gα-T2R40 stable expression cell line and the Gα-T2R43 stable expression cell line were prepared by the same method as in Example 2. […] The results are depicted in FIG. 3.

T2R43 = target: T2, T2R43 (Homo sapiens, UniProt P59537, H212R/W35S); assay: Response of Gα-T2R43 stable expression cell line to agonist (Fluo-8 calcium fluorescence); format: cell-based; conditions: Gα-T2R43 compared with T2R43-Gα; agonist 100 μM or 300 μM; FIG. 3
T2 construct: expressed in transfected cells
T2 sequence (P59537 1-309 W35S/H212R): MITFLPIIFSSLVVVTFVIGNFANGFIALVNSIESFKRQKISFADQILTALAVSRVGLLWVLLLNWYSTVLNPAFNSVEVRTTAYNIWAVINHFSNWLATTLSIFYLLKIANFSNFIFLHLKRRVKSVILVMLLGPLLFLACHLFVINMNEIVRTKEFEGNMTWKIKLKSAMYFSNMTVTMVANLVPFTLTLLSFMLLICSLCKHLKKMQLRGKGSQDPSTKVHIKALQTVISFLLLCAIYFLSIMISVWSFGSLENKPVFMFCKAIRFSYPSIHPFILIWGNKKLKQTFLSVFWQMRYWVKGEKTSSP
Procedure: as §1, §2

[1] = target: T3, human bitter taste receptor (T2R16) (Homo sapiens, UniProt Q9NYV7); assay: Response of T2R16 stable expression cell line to bitter substance (Fluo-8 calcium fluorescence); format: cell-based; conditions: salicin 10, 3, 1, 0.3 or 0.1 mM, FIG. 2
T3 construct: N-terminal 45 amino acids of rat somatostatin receptor 3 (ssr3); expressed in transfected cells
T3 sequence (Q9NYV7 1-291): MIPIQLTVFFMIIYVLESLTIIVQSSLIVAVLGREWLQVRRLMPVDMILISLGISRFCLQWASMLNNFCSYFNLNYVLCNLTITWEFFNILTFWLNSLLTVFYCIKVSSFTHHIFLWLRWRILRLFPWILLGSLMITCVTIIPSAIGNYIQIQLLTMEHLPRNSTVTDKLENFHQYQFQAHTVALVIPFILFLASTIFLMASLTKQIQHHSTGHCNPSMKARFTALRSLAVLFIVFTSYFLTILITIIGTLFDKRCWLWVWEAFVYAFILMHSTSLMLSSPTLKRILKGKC
Procedure: Specifically, into 1×10^6 cells of the human embryonic kidney cell line HEK293T (obtained from RIKEN) seeded in a culture vessel, 5 μg of each of the Gα-T2R16 and T2R16-Gα plasmid vectors prepared in Example 1 was introduced through the use of lipofectamine (registered trademark) 3000 (Thermo Fisher Scientific Inc.). After 48 hours of culture, drug resistance screening was performed by adding 100 μg/mL hygromycin B to the medium and then culturing for about 15 days. Cells that had acquired drug resistance were cloned by seeding these cells in each well of a 96-well plate at one cell per well. After about 10 days of culture, a stable expression cell line was obtained.
The T2R16 stable expression cell line prepared based on the method described in Example 2 was seeded at 2×10^4 cells/well in a 96-well plate. The culture media for cells contained a green fluorescent calcium indicator Fluo-8 (registered trademark) (AAT Bioquest, Inc.), and the uptake of Fluo-8 into the cell lines was examined. Fluo-8 (registered trademark) is suitable for detection of intracellular calcium dynamics and is an indicator of GPCR activity.
Cells incorporating Fluo-8 (registered trademark) were excited at 490 nm and the fluorescence intensity at 514 nm was measured. […] The results are depicted in FIG. 2.

T2R16 [2] = target: T4, T2R16 (Homo sapiens, UniProt Q9NYV7); assay: Response intensity before and after cryopreservation of T2R16 stable expression cell line; format: cell-based; conditions: FIG. 7
T4 construct: expressed in transfected cells
T4 sequence (Q9NYV7 1-291): T3 sequence (Q9NYV7 1-291)
Procedure: Gα-T2R16 in this example was prepared in the same manner as in the case of the Gα-T2R16 stable expression cell line in Example 2, but pEAK10 (Edge biosystem, Inc.) was used as an expression vector and “ssr/T2R16” (without V5) was inserted instead of “ssr/T2R16/V5”. Further, drug resistance screening was performed with 1 μg/mL puromycin instead of hygromycin B.
As a comparative example, into the Gα16/Gαgust43 stable expression cell line (subjected in advance to drug resistance screening with puromycin) prepared using the same technique as in Example 2, 5 μg of ssr-T2R16 expression vector was introduced and then drug resistance screening was performed using puromycin. The thus prepared stable expression cell line (Double stable) stably expressing Gα16/Gαgust43+T2R16 was used.
Before and after cryopreservation of the cell line, the response intensity to salicin (1 or 0.1 mM) was examined in the same manner as in Example 3. For cryopreservation, CELLBANKER (Nippon Zenyaku Kogyo Co., Ltd.) was used, and cells were stored under liquid nitrogen for 1 month. The temperature for the cryopreserved cells was brought back to normal temperature, cells were passaged at least twice, and then the response intensity after cryopreservation was measured. The results are depicted in FIG. 7.

T2R16 [3] = target: T4, T2R16; assay: Response of T2R16 transiently expressing cells to bitter substance; format: cell-based; conditions: transient Gα-T2R16 in HEK293T compared with T2R16-Gα, co-transfection and Gα stable; FIG. 4
Procedure: Into HEK293T seeded at 2×10^4 in a 96-well plate, 0.1 μg of each of the Gα-T2R16 and the T2R16-Gα plasmid vectors was introduced using lipofectamine (registered trademark) 3000. After 30 hours of culture, response intensity to salicin was measured using the same technique as in Example 3 (1) (maximum fluorescence intensity during 40 seconds after the addition of salicin). Note that drug resistance screening with hygromycin B as in Example 2 was not performed (transiently expressing cells).
Furthermore, as a comparative example, the following cells were also prepared other than T2R16-Gα expressing cells, and then the response to salicin was measured:
cells (cotransfection), prepared by simultaneous gene transfer of a total of 0.1 μg of a Gα16/Gαgust43gust expression vector and a ssr-T2R16-V5 expression vector comprising a Gα16/Gαgust43 expression gene and a ssr-T2R16-V5 expression gene, respectively, via incorporation thereof into pcDNA3.1 Hygro(+) vectors for transient expression of the genes; and
cells (Gα stable), prepared by the gene transfer of 0.1 μg of a ssr-T2R16-V5 expression vector into a Gα16/Gαgust43 stable expression cell line (subjected in advance to drug resistance screening using hygromycin B) prepared by the same technique as in Example 2 for transient expression of the genes.

[4] = target: T2R38 subtype (bitter taste receptor) (Homo sapiens, UniProt P59533, A49P/I296V); conditions: Gα-T2R38 stable expression cell line, FIG. 18
Procedure: A Gα-T2R38 expression vector comprising a gene encoding a T2R38 subtype (bitter taste receptor) instead of the gene encoding T2R16 of Gα-T2R16 in Examples 1 and 2 was prepared, and thus a stable expression cell line was prepared by the same method as in Examples 1 and 2.
Subsequently, using the same method as in Example 3, the response to a known T2R38 agonist, 6-n-propylthiouracil (1000 μM, 300 μM), was measured. As a control, a cell line (HEK293T) not incorporating any Gα-T2R38 expression vector was used.

[5] = target: T5, olfactory receptor (OR3A1) (Homo sapiens, UniProt P47881); assay: cAMP response in cells transiently expressing olfactory receptor (cAMP-GloMax luminescence); format: cell-based; conditions: FIG. 20
T5 construct: N-terminal 21 amino acids of human rhodopsin (Rho); expressed in transfected cells; host or cells: HEK293T, transient, pcDNA vectors
T5 sequence (P47881 2-315 limits assumed): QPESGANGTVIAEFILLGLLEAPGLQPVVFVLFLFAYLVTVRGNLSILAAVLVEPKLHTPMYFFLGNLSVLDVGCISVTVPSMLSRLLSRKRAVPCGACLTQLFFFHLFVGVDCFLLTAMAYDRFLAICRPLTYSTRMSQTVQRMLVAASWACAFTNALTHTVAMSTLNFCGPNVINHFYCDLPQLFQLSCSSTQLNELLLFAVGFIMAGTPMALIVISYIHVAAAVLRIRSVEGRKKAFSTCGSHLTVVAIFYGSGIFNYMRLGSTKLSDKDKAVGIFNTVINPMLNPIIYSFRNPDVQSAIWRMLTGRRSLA
Procedure: Genes encoding Rho-OR3A1, in which N-terminal 21 amino acids (Rho) of human rhodopsin had been added to the N-terminus of OR3A1, and Gαolf were introduced together with IRES into pcDNA vectors by the same method as in Example 1, thereby preparing expression vectors, OR3A1-Gαolf and Gαolf-OR3A1. Using these expression vectors, transiently expressing HEK293T cells were prepared by the same method as in Example 4. As a control, HEK293T cells prepared by separate introduction of each gene of OR3A1 and Gαolf into pcDNA and then double-gene transfer thereof were used.
Next, helional, a known agonist for OR3A1, was added onto the prepared cells (100 μM, 30 μM). The amount of cAMP produced in association with the response of OR3A1 20 minutes after the addition of helional was detected by luminescence measurement using a cAMP-GloMax assay kit (Promega).

Chain of T2R38 subtype (bitter taste receptor) (P59533 whole entry A49P/I296V): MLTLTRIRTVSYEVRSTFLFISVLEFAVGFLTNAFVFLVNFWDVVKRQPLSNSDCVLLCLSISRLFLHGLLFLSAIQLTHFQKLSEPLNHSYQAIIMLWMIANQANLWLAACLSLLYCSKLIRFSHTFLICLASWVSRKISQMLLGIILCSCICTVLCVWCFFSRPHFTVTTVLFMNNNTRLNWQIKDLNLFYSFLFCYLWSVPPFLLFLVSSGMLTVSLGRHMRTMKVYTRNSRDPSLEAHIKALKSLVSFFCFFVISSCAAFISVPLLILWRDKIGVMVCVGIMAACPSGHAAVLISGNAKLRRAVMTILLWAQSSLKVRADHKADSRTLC
T1 sequence (P59535 whole entry): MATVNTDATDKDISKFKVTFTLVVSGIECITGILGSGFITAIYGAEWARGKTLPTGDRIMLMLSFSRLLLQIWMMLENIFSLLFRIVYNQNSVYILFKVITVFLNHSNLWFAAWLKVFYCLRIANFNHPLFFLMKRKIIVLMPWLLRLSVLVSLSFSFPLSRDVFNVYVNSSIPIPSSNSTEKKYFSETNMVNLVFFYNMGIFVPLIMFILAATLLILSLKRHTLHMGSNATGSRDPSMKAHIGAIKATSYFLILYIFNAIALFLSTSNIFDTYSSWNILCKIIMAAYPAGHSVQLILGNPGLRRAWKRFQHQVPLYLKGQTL

SMILES: OC(CCCN1CCCCC1)(c1ccccc1)c1ccccc1 [diphenydol]
- response intensity of T2R40 to the agonist (T2R40): higher response intensity

SMILES: C=C[C@H]1C[N@@]2CC[C@H]1C[C@H]2[C@H](O)c1ccnc2ccc(OC)cc12 [quinine]
- response intensity of T2R43 to the agonist (T2R43): higher response intensity

SMILES: OCc1ccccc1O[C@@H]1O[C@H](CO)[C@@H](O)[C@H](O)[C@H]1O [salicin]
- response intensity of T2R16 to the agonist (increase rate of maximum fluorescence intensity) ([1]; HEK293T stable cell line containing the Gα-T2R16 plasmid): exhibited responses
- response intensity of T2R16 to the agonist (increase rate of maximum fluorescence intensity) ([1]; cell line containing the comparative T2R16-Gα plasmid): almost no response
- ratio of response intensity after freezing/response intensity before freezing (T2R16 [2]; Gα-T2R16 stable expression cell line (pEAK10), salicin 0.1 mM, 1 month under liquid nitrogen): ≥ 0.8
- ratio of response intensity after freezing/response intensity before freezing (T2R16 [2]; Gα-T2R16 stable expression cell line (pEAK10), salicin 1 mM, 1 month under liquid nitrogen): ≥ 0.8
- ratio of response intensity after freezing/response intensity before freezing (T2R16 [2]; comparative Double stable cell line (Gα16/Gαgust43+T2R16), salicin 0.1 mM): ≤ 0.4
- ratio of response intensity after freezing/response intensity before freezing (T2R16 [2]; comparative Double stable cell line (Gα16/Gαgust43+T2R16), salicin 1 mM): less than 0.6
- response intensity to salicin (T2R16 [3]): response intensity higher

SMILES: CCCc1cc(=O)[nH]c(=S)[nH]1 [6-n-propylthiouracil]
- response to T2R38 agonist ([4]; 300 μM): exhibited
- response to T2R38 agonist ([4]; 1000 μM): exhibited

SMILES: CC(C=O)Cc1ccc2c(c1)OCO2 (centres unmarked) [helional]
- amount of cAMP produced in association with the response of OR3A1 ([5]; HEK293T cells with Gαolf-OR3A1 expression vector, 100 μM helional, 20 minutes after addition): increase in cAMP
- amount of cAMP produced in association with the response of OR3A1 ([5]; HEK293T cells with OR3A1-Gαolf expression vector, helional 100 μM, 30 μM, 20 minutes): no response
- amount of cAMP produced in association with the response of OR3A1 ([5]; HEK293T cells with OR3A1 and Gαolf genes introduced separately, helional 100 μM, 30 μM, 20 minutes): no response
